Results on 4 compounds are retold here after patent US5270316A, “Condensed purine derivatives” (Kyowa Hakko Kogyo Co., Ltd., priority 1989, dated 1993).

Structures are written as SMILES. pIC50: −log10 of the molar value. Bounds are passed on as bounds.

The test system of the first data set is Platelet Activating Factor (PAF)-induced mortality. Kind of data set: Inhibition of Platelet Activating Factor (PAF)-induced mortality. The class given is in vivo, mouse (male dd mice). The following applies: Mus musculus, 2 h, oral, mice, one hour before PAF 40 μg/kg i.v., p<0.05 vs control, read-out: PAF-induced mortality inhibition, minimum effective dose (MED). How it is done:
The experiment was performed by a minor modification of method of Carlson et al. [Agents and Actions, 21, 379 (1987)]. Groups each consisting of 10 male dd mice (weighing 28 to 32 g) were used, and 100 mg/kg of test compound or a saline (control) was orally administrated. One hour after the administration of test compound, 40 μg/kg of PAF (manufactured by Avanti Polar Lipids Co., Ltd.) was intravenously administered. Two hours after PAF injection, the mortality rate of the animals was observed.
`CCCN1C(=O)N2CC(C)(C)N=C2c2[nH]c(C3CCCC3)nc21` [14 Sa]: the minimal effective dose came to 100 mg/kg.

On to `CCCN1C(=O)N2CCN=C2c2c1ncn2C` [Compound 1, 1-Methyl-4-n-propyl-1,4,7,8-tetrahydro-5H-imidazo[2,1-i]purin-5-one], for which the minimal effective dose is more than 100 mg/kg.

As for `CCCN1C(=O)N2CC(CC)N=C2c2c1ncn2C` (stereo not drawn) [Compound 4, 8-Ethyl-1-methyl-4-n-propyl-1,4,7,8-tetrahydro-5H-imidazo[2,1-i]purin-5-one], the minimal effective dose was more than 100 mg/kg.

As for `CCCN1C(=O)N2CCN=C2c2[nH]c(C3CCCC3)nc21` [Compound 6, 2-Cyclopentyl-4-n-propyl-1,4,7,8-tetrahydro-5H-imidazo[2,1-i]purin-5-one], the minimal effective dose is 50 mg/kg.

In a further data set the test system is trachea. In words: Passive Schultz-Dale reaction (bronchodilatory effects), relaxation of sensitized trachea strips. The arrangement: species or system guinea pig (Hartley male). The following applies: Cavia porcellus; sensitized guinea pig trachea, EWA 1 μg/ml, 37° C.; read-out: Passive S-D reaction IC50 (concentration of 50% relaxation rate). How it is done:
Guinea pigs were passively sensitized as follows. […] After 24 hours, the guinea pigs were stunned and exsanguinated, and then trachea was excised. The zig-zag strips of the trachea were prepared by the method of Emmerson and Mackay [J. Pharm. […] After the contraction curves reached plateau the compounds were successively added in order to get cumulative concentration-relaxation curves.
`CCCN1C(=O)N2CC(C)(C)N=C2c2[nH]c(C3CCCC3)nc21` [14 Sa]: the pIC50 is 4.96.

With `CCCN1C(=O)N2CCN=C2c2c1ncn2C` [Compound 1, 1-Methyl-4-n-propyl-1,4,7,8-tetrahydro-5H-imidazo[2,1-i]purin-5-one], the pIC50 was 8.52.

In the case of `CCCN1C(=O)N2CC(CC)N=C2c2c1ncn2C` (stereo not drawn) [Compound 4, 8-Ethyl-1-methyl-4-n-propyl-1,4,7,8-tetrahydro-5H-imidazo[2,1-i]purin-5-one], the pIC50 is 7.44.

For the compound `CCCN1C(=O)N2CCN=C2c2[nH]c(C3CCCC3)nc21` [Compound 6, 2-Cyclopentyl-4-n-propyl-1,4,7,8-tetrahydro-5H-imidazo[2,1-i]purin-5-one], the pIC50 was less than 4.40.

Tested on in another data set: not listed separately
Kind of data set: Acute toxicity, minimum lethal dose (oral, mice). It is filed as in vivo. The following applies: male dd-mice, mortality observed for seven days. The method, then:
The compounds were orally administrated to male dd-mice weighing 20±1 g. Minimum lethal dose (MLD) was determined by observing the mortality for seven days after the administration.
As for `CCCN1C(=O)N2CC(C)(C)N=C2c2[nH]c(C3CCCC3)nc21` [14 Sa], the “Minimum lethal dose (MLD)” value is given as more than 300 mg/kg.

With `CCCN1C(=O)N2CCN=C2c2c1ncn2C` [Compound 1, 1-Methyl-4-n-propyl-1,4,7,8-tetrahydro-5H-imidazo[2,1-i]purin-5-one], the “Minimum lethal dose (MLD)” value is more than 300 mg/kg.

With `CCCN1C(=O)N2CC(CC)N=C2c2c1ncn2C` (stereo not drawn) [Compound 4, 8-Ethyl-1-methyl-4-n-propyl-1,4,7,8-tetrahydro-5H-imidazo[2,1-i]purin-5-one], the “Minimum lethal dose (MLD)” value is more than 300 mg/kg.

The next data set deals with Glycerol-induced Renal Deficient Model. In words: Renal protecting activity (glycerol-induced renal deficient model): serum creatinine and urea nitrogen. Particulars: 10 mg/kg intraperitoneal, rats, 24 hours after glycerol injection; own control beside each compound; normal control 0.50. The class given is in vivo, rat (Wistar male rats). The method, then:
It is well known that subcutaneous or intramuscular administration of glycerol to rat induce acute renal insufficiency characterized by renal tubular disturbance [Can J. Physiol.
Wistar male rats (fasted both food and water for 18 hours) were used. A test compound or saline (control) was intraperitoneally administered (dose: 10 mg/kg) to rats. After 30 minutes rats were anesthesized with ether and the back skin was picked up and 0.8 ml/100 g of 50% glycerol was subcutaneously administered. 24 hours after the glycerol injection, the rats were anesthesized with ether and 5 ml of the blood was collected from the descending aorta. To obtain the serum, after allowing it to stand for 30 minutes or longer, the blood sample was centrifuged at 3000 rpm for 10 minutes. Creatinine in the serum sample was determined using autoanalyzer (AU510, Olympus) or clinical analysis kit of creatinine (Creatinine Test Wako; by Wako Pure Chemical Ind., Japan). Urea nitrogen in the serum was determined using autoanalyzer (AU510; made by Olympus Optical Co., Ltd, Japan) or clinical analysis kit of urea nitrogen (Urea nitrogen test wako; by Wako Pure Chemical Ind., Japan).
Take `CCCN1C(=O)N2CC(C)(C)N=C2c2[nH]c(C3CCCC3)nc21` [14 Sa]: the “Creatinine in serum, glycerol treated, test compound administrated” value (from here on “Creatinine in serum, glycerol treated”) amounted to 2.62 ± 0.40 mg/dL.

On to `CCCN1C(=O)N2CCN=C2c2c1ncn2C` [Compound 1, 1-Methyl-4-n-propyl-1,4,7,8-tetrahydro-5H-imidazo[2,1-i]purin-5-one], for which the “Creatinine in serum, glycerol treated” value is 1.94 ± 0.16 mg/dL.

Regarding `CCCN1C(=O)N2CCN=C2c2[nH]c(C3CCCC3)nc21` [Compound 6, 2-Cyclopentyl-4-n-propyl-1,4,7,8-tetrahydro-5H-imidazo[2,1-i]purin-5-one], the “Creatinine in serum, glycerol treated” value was found to be 1.81 ± 0.12 mg/dL.

Still in this data set, the particulars now being: 10 mg/kg intraperitoneal, rats, 24 hours after glycerol injection; own control beside each compound; normal control 15.2.
Take `CCCN1C(=O)N2CC(C)(C)N=C2c2[nH]c(C3CCCC3)nc21` [14 Sa]: the “Urea nitrogen in serum, glycerol treated, test compound administrated” value was 94.8 ± 14.3 mg/dL.

Tested on in a further data set: not listed separately
In words: Diuretic activity (oral, urine collected for 6 hours). The class given is in vivo, rat (Wistar male rats). The following applies: Rattus norvegicus, 1.6 mg/kg oral, rats, relative value for control (1.00), read-out: Na+/K+. How it is done:
Wistar male rats weighing 150 to 300 g were used after they were fasted for 18 hours. A test compound or saline (control) was orally administered to rats and urine was collected for 6 hours. The test was performed using 3 groups per the test compound, and each group consists of 3 animals. The urine was metered by a measuring cylinder and electrolytes (Na^+ and K^+) in the urine were assayed with a flame photometer (model […] manufactured by Hitachi Ltd.). Parameters in Table 3 are all expressed by relative value for control.
On to `CCCN1C(=O)N2CCN=C2c2[nH]c(C3CCCC3)nc21` [Compound 6, 2-Cyclopentyl-4-n-propyl-1,4,7,8-tetrahydro-5H-imidazo[2,1-i]purin-5-one], for which the response vs control in vivo at 1.6 mg/kg turned out to be 155%.

Still in this data set, the particulars now being: Rattus norvegicus, 1.6 mg/kg oral, rats, relative value for control, read-out: Excretion of K+.
Regarding `CCCN1C(=O)N2CCN=C2c2[nH]c(C3CCCC3)nc21` [Compound 6, 2-Cyclopentyl-4-n-propyl-1,4,7,8-tetrahydro-5H-imidazo[2,1-i]purin-5-one], the response vs control in vivo at 1.6 mg/kg was found to be 30%.

Staying with this data set, now noted: Rattus norvegicus, 1.6 mg/kg oral, rats, relative value for control, read-out: Excretion of Na+.
In the case of `CCCN1C(=O)N2CCN=C2c2[nH]c(C3CCCC3)nc21` [Compound 6, 2-Cyclopentyl-4-n-propyl-1,4,7,8-tetrahydro-5H-imidazo[2,1-i]purin-5-one], the response vs control in vivo at 1.6 mg/kg turned out to be 102%.

The data set is the same for the next values; noted with them: Rattus norvegicus, 1.6 mg/kg oral, rats, relative value for control, read-out: Urine volume.
For `CCCN1C(=O)N2CCN=C2c2[nH]c(C3CCCC3)nc21` [Compound 6, 2-Cyclopentyl-4-n-propyl-1,4,7,8-tetrahydro-5H-imidazo[2,1-i]purin-5-one], the response vs control in vivo at 1.6 mg/kg stood at 121%.

Still in this data set, the particulars now being: Rattus norvegicus, 6.25 mg/kg oral, rats, relative value for control (1.00), read-out: Na+/K+.
For `CCCN1C(=O)N2CC(C)(C)N=C2c2[nH]c(C3CCCC3)nc21` [14 Sa], the response vs control in vivo at 6.25 mg/kg came to 123%.

Still in this data set, the particulars now being: Rattus norvegicus, 6.25 mg/kg oral, rats, relative value for control, read-out: Excretion of K+.
Regarding `CCCN1C(=O)N2CC(C)(C)N=C2c2[nH]c(C3CCCC3)nc21` [14 Sa], the response vs control in vivo at 6.25 mg/kg turned out to be 43%.

The same data set, now with this note: Rattus norvegicus, 6.25 mg/kg oral, rats, relative value for control, read-out: Excretion of Na+.
Turning to `CCCN1C(=O)N2CC(C)(C)N=C2c2[nH]c(C3CCCC3)nc21` [14 Sa], the response vs control in vivo at 6.25 mg/kg stood at 75%.

The same data set, now with this note: Rattus norvegicus, 6.25 mg/kg oral, rats, relative value for control, read-out: Urine volume.
Regarding `CCCN1C(=O)N2CC(C)(C)N=C2c2[nH]c(C3CCCC3)nc21` [14 Sa], the response vs control in vivo at 6.25 mg/kg was 113%.

Still in this data set, the particulars now being: Rattus norvegicus, 25 mg/kg oral, rats, relative value for control (1.00), read-out: Na+/K+.
In the case of `CCCN1C(=O)N2CC(C)(C)N=C2c2[nH]c(C3CCCC3)nc21` [14 Sa], the response vs control in vivo at 25 mg/kg is 200%.

Staying with this data set, now noted: Rattus norvegicus, 25 mg/kg oral, rats, relative value for control, read-out: Excretion of K+.
On to `CCCN1C(=O)N2CC(C)(C)N=C2c2[nH]c(C3CCCC3)nc21` [14 Sa], for which the response vs control in vivo at 25 mg/kg worked out at 31%.

Staying with this data set, now noted: Rattus norvegicus, 25 mg/kg oral, rats, relative value for control, read-out: Excretion of Na+.
As to `CCCN1C(=O)N2CC(C)(C)N=C2c2[nH]c(C3CCCC3)nc21` [14 Sa], the response vs control in vivo at 25 mg/kg is 162%.

The data set is the same for the next values; noted with them: Rattus norvegicus, 25 mg/kg oral, rats, relative value for control, read-out: Urine volume.
For `CCCN1C(=O)N2CC(C)(C)N=C2c2[nH]c(C3CCCC3)nc21` [14 Sa], the response vs control in vivo at 25 mg/kg turned out to be 145%.
